Data as given in patent US10696678B2, “Kinase inhibitor, and preparing method and pharmaceutical use thereof” (GAN & LEE PHARMACEUTICALS, priority 2015, dated 2020).
Read-outs that look alike come from different tables or passages of the source.

How the values were obtained:
CDK6/D3 = CDK6/D3 (Homo sapiens (Human), UniProt Q00534); assay: CDKs inhibition assay (ADP-Glo Kinase Assay), CDK6; settings: for Ratio IC50 (CDK6)/IC50 (CDK1): smaller value = better selectivity for CDK6
Description: (2) Preparation of Test Compound:
(§4) a. Test compounds at a certain concentration were taken respectively, and diluted with kinase reaction buffer I to compound solutions with a final concentration of 50 μM;
(§5) 4. Preparation of reaction substrate and ATP mixed solution:
a. Preparation of ATP solution:
(§6) 200 μl of 0.1 mM ATP solution: 2 μl of 10 mM ATP was added into 198 μl kinase reaction buffer I;
(§7) 300 μl of 50 μl M ATP solution: 150 μl kinase reaction buffer I was added into 150 μl of above-mentioned 0.1 mM ATP solution;
(§8) b. Preparation of 300 μl reaction substrate solution:
(§9) 150 μl of 1 μg/μl reaction substrate stock solution was added into 150 μl kinase reaction buffer I and uniformly mixed;
(§10) c. Above-mentioned a/b solutions were mixed to obtain mixed solutions respectively.
(§11) 2 μl compound solution at each concentration was added into a 384-well plate respectively, and centrifuged for 3 min;
(§12) 4 μl kinase solution was added into each well, centrifuged at 5000 rpm for 10 min at 18° C., and shaked well for 10 min on a shaker;
(§13) 4 μl substrate and ATP mixed solution were added into each well, centrifuged at 5000 rpm for 10 min at 18° C., and shaked well for 90 min on a shaker at 37° C.;
(§14) The 384 well plate was removed and allow to achieve room temperature;
(§15) 10 μl ADP-Glo reagent was added into each well, centrifuged at 5000 rpm for 10 min at 18° C., and shaked well for 40 min on a shaker at 25° C. to terminate the reaction;
(§16) 20 μl kinase assay reagent was added into each well, centrifuged at 5000 rpm for 10 min at 18° C., and shaked well for 30 min on a shaker at 25° C.;
(§17) Fluorescence values were read by M1000pro microplate reader.
(§18) The inhibition rate of each compound at each concentration point was calculated according to the following equation, and IC50 value was calculated by curve fitting using GraphPad Prism 5 software.

[1] = system: human breast cancer cell line MDB-MA-231; assay: Proliferation inhibition assay on human breast cancer cell line MDA-MB-231 (DAPI staining, In Cell Analyzer); format: cell-based; settings: MDA-MB-231, read-out: IC50 for inhibition of proliferation of human breast cancer cell line MDB-MA-231, 72 h incubation
Description: Experimental Preparation:
1. MDA-MB-231 cells were seeded at 4000 cells/100 ul/well to a 96-well plate with black transparent bottom, and cultured overnight at 37° C.;
3. Fixation: the cell plate was taken, medium was removed, and 50 μl of 4% paraformaldehyde was added to each well and fixed 10 min;
4.50 μl 0.1 M glycine was added to neutralize for 10 min;
6. Permeabilization: 50 ul of 0.2% TritonX-100 was added to each well and permeabilized at room temperature for 10 min;
8.5 mg/mL DAPI stock solution was diluted at 1:5000 (final concentration 1 μg/ml) and the cells were stained at room temperature for 20 min.
10. The plate was scanned and analyzed on In cell analyser.

CDK4/D3 = CDK4/D3 (Homo sapiens (Human), UniProt P11802); assay: CDKs inhibition assay (ADP-Glo Kinase Assay), CDK4; settings: for selectivity for CDK4/6 (over CDK1) compared with the control compound LY2835219: in words; for Ratio IC50 (CDK4)/IC50 (CDK1): smaller value = better selectivity for CDK4
Description: (2) Preparation of Test Compound:
as §4, §5
a. Preparation of ATP solution:
as §6, §7, §8, §9, §10, §11, §12, §13, §14, §15, §16, §17, §18

CDK1/A2 = CDK1/A2 (Homo sapiens (Human), UniProt P06493); assay: CDKs inhibition assay (ADP-Glo Kinase Assay), CDK1; settings: read-out: IC50 (nM) CDK1/A2
Description: (2) Preparation of Test Compound:
as §4, §5
a. Preparation of ATP solution:
as §6, §7, §8, §9, §10, §11, §12, §13, §14, §15, §16, §17, §18

[2] = Pharmacokinetic study in mice (intragastric and intravenous); format: in vivo, ICR mice; settings: for AUC: read-out: Area under the curve AUC; for MRT: read-out: Retention time MRT
Description: (§1) 2.3 Preparation of Test Compounds
An appropriate amount of sample was weighed, then 0.1% hydroxyethyl cellulose/0.5% Tween 80 was added to final volume to obtain a solution of 0.5 mg/ml for intragastrical administration.
(§2) 2.4 Test Drug Administration
Male ICR mice, 3 for each test compound, were intragastrically administered test drugs at a dose of 5 mg/kg and a drug volume of 10 ml/kg after an overnight fast.
Male ICR mice, 3 for each test compound, were administered by intravenous injection test drugs at a dose of 2 mg/kg and a drug volume of 10 ml/kg after an overnight fast.
(§3) 3. Experimental Operation
The carotid artery of the animal was catheterized and blood sample was removed prior to dosing and at 0.25, 0.5, 1, 2, 4, 8, 12 and 24 hours after dosing for intragastrical administration group. Whole blood was anticoagulated with EDTA-K2, centrifuged to remove the supernatant, and cryopreserved at −20° C. until being analyzed. The carotid artery of the animal was catheterized and blood sample was removed prior to dosing and at 0.083, 0.25, 0.5, 1, 2, 4, 8, 12 and 24 hours after dosing for i.v. administration group. Plasma sample treatment was the same as intragastrical administration group.

[3] = Pharmacokinetic study in rats (intragastric); format: in vivo, SD rats; settings: 5 mg/kg
Description: as §1, §2, §3
Whole blood was anticoagulated with EDTA-K2, centrifuged to remove the supernatant, and cryopreserved at −20° C. until being analyzed.

[4] = male, ICR, mouse, plasma, iv, i.v. (2 mg/kg)
[5] = male, ICR, mouse, plasma, po, i.g. (5 mg/kg)

| IC50 (CDK6/D3) [nM] | Ratio IC50 (CDK6)/IC50 (CDK1) (CDK6/D3) | IC50 [1] [nM] | IC50 (CDK4/D3) [nM] | Ratio IC50 (CDK4)/IC50 (CDK1) (CDK4/D3) | IC50 (CDK1/A2) [nM] | Apparent volume of distribution Vz/F ([2]; i.v. (2 mg/kg)) [L/kg] | AUC [2, 4] [ng·h/mL] | MRT [2, 4] [h] | bioavailability ([2]; male, ICR, mouse, plasma, oral, i.g. (5 mg/kg) vs i.v. (2 mg/kg), read-out: Bioavailability F) [%] | Vd/F ([2]; male, ICR, mouse, plasma, po, i.g. (5 mg/kg), read-out: Apparent volume of distribution Vz/F) [L/kg] | AUC [2, 5] [ng·h/mL] | MRT [2, 5] [h] | Area under the curve AUC [3] [ng·h/mL] | Structure (SMILES) | selectivity for CDK4/6 (over CDK1) compared with the control compound LY2835219 (CDK4/D3) |
| --- | --- | --- | --- | --- | --- | --- | --- | --- | --- | --- | --- | --- | --- | --- | --- |
| 0.3 | 0.0004 | 58 | 13 | 0.018 | 732 | – | – | – | – | – | – | – | – | CN1CCN(c2ccc(Nc3ncc(F)c(-c4cc(F)c5nc6n(c5c4)C(C)(C)CC6)n3)nc2)CC1 [Example 43, 5-Fluoro-4-(5-fluoro-1,1-dimethyl-2,3-dihydro-1H-benzo[d]pyrrolo[1,2-a]imidazol-7-yl)-N-(5-(4-methylpiperazin-1-yl)pyridin-2-yl)pyrimidin-2-amine] | better selectivity for CDK4/6 than the control compound |
| – | – | – | – | – | – | 7.21 ± 1.08 | 674 ± 82.1 | 1.64 ± 0.17 | 45.1 | 16.1 ± 0.963 | 756 ± 34 | 3.08 ± 0.02 | 3275 ± 731 | CCN1CCN(Cc2ccc(Nc3ncc(F)c(-c4cc(F)c5nc(C)n(C(C)C)c5c4)n3)nc2)CC1 [LY2835219] | – |
| 12.2 | 0.016 | 300 | 1.2 | 0.002 | 744 | – | – | – | – | – | – | – | – | Cc1nc(Nc2ncc(F)c(-c3cc(F)c4nc5n(c4c3)C(C)(C)CC5)n2)ccc1CC1CCNCC1 [Example 30, 5-Fluoro-4-(5-fluoro-1,1-dimethyl-2,3-dihydro-1H-benzo[d]pyrrolo[1,2-a]imidazol-7-yl)-N-(6-methyl-5-(piperidine-4-ylmethyl)pyridin-2-yl)pyrimidin-2-amine] | better selectivity for CDK4/6 than the control compound |
| – | – | – | – | – | 693 | – | – | – | – | – | – | – | – | CC1CCc2nc3c(F)cc(-c4ccnc(Nc5ccc(N6CCNCC6)cn5)n4)cc3n21 (stereo not shown) [Example 72, 4-(5-Fluoro-1-methyl-2,3-dihydro-1H-benzo[d]pyrrolo[1,2-a]imidazol-7-yl)-N-(5-(piperazin-1-yl)pyridin-2-yl)pyrimidin-2-amine] | – |
| 0.6 | 0.006 | 174 | 0.28 | 0.003 | 94.8 | – | – | – | – | – | – | – | – | CC1CN(c2ccc(Nc3ncc(F)c(-c4cc(F)c5nc6n(c5c4)C(C)(C)CC6)n3)nc2)CC(C)N1 (stereo not shown) [Example 74, N-(5-(3,5-Dimethylpiperazin-1-yl)pyridin-2-yl)-5-fluoro-4-(5-fluoro-1,1-dimethyl-2,3-dihydro-1H-benzo[d]pyrrolo[1,2-a]imidazol-7-yl)pyrimidin-2-amine] | better selectivity for CDK4/6 than the control compound |
| – | – | – | – | – | 6240 | – | – | – | – | – | – | – | – | CC1(C)Cc2nc3c(F)cc(-c4nc(Nc5ccc(N6CCNCC6)cn5)ncc4F)cc3n2C1 [Example 55, 5-Fluoro-4-(5-fluoro-2,2-dimethyl-2,3-dihydro-1H-benzo[d]pyrrolo[1,2-a]imidazol-7-yl)-N-(5-(piperazin-1-yl)pyridin-2-yl)pyrimidin-2-amine] | – |

| Structure (SMILES) | IC50 (CDK6/D3) [nM] | Ratio IC50 (CDK6)/IC50 (CDK1) (CDK6/D3) | IC50 [1] [nM] | IC50 (CDK4/D3) [nM] | Ratio IC50 (CDK4)/IC50 (CDK1) (CDK4/D3) | IC50 (CDK1/A2) [nM] | Apparent volume of distribution Vz/F ([2]; i.v. (2 mg/kg)) [L/kg] | AUC [2, 4] [ng·h/mL] | MRT [2, 4] [h] | bioavailability ([2]; male, ICR, mouse, plasma, oral, i.g. (5 mg/kg) vs i.v. (2 mg/kg), read-out: Bioavailability F) [%] | Vd/F ([2]; male, ICR, mouse, plasma, po, i.g. (5 mg/kg), read-out: Apparent volume of distribution Vz/F) [L/kg] | AUC [2, 5] [ng·h/mL] | MRT [2, 5] [h] | Area under the curve AUC [3] [ng·h/mL] | selectivity for CDK4/6 (over CDK1) compared with the control compound LY2835219 (CDK4/D3) |
| --- | --- | --- | --- | --- | --- | --- | --- | --- | --- | --- | --- | --- | --- | --- | --- |
| C[C@H]1CN(Cc2ccc(Nc3ncc(F)c(-c4cc(F)c5nc6n(c5c4)C(C)(C)CC6)n3)nc2)CCN1C [Example 47, (S)—N-(5-((3,4-Dimethylpiperazin-1-yl)methyl)pyridin-2-yl)-5-fluoro-4-(5-fluoro-1,1-dimethyl-2,3-dihydro-1H-benzo[d]pyrrolo[1,2-a]imidazol-7-yl)pyrimidin-2-amine] | 3 | 0.004 | – | 2.4 | 0.003 | 745 | – | – | – | – | – | – | – | – | better selectivity for CDK4/6 than the control compound |
